The numbers were not newly measured in patent US20040014955A1, “Identification of essential genes of cryptococcus neoformans and methods of use” (priority 2001, published 2004), which cites them from elsewhere.

*1 amine or outer side, *2 acyl side, *3 side chain or, on linkers, in order; H or OH if unused. Where a SMILES comes first, the peptide text is derived from it. [ ]: non-standard residue; d: D form. X1 = CC[C@@H](C)[C@@H](O[*:1])C(=O)[*:2]; NMeVal(β-OH) = CN[C@H](C(=O)O)C(C)(C)O; NMeF = CN[C@@H](Cc1ccccc1)C(=O)O; NMeV = CN[C@H](C(=O)O)C(C)C

In this data set the test system is C. neoformans. The note with it: weanling outbred rats infected with C. neoformans by direct percranial puncture and inoculation into the cranium.

Take `CC[C@@H](C)[C@H]1OC(=O)[C@H](C(C)(C)O)N(C)C(=O)[C@H](CC(C)C)NC(=O)[C@H](C(C)C)N(C)C(=O)[C@H]([C@@H](C)CC)NC(=O)[C@@H]2CCCN2C(=O)[C@H](Cc2ccccc2)N(C)C(=O)[C@H](Cc2ccccc2)NC(=O)[C@H](C(C)C)N(C)C1=O` [LY295337] (cyclo(F[NMeF]PI[NMeV]L[NMeVal(β-OH)][X1][NMeV])): the “fungal counts in brain tissue” value is listed as “reducing fungal counts in brain tissue” and the survival result is “effective in prolonging survival”.
